According to ChEMBL document CHEMBL3745611 (J Med Chem, 2015):
Converted amounts (≈) assume the structure as drawn. The source made the active and inactive calls. No cut-off for these calls is given here.

Tests used:
[1] = target: T1, Transitional endoplasmic reticulum ATPase (Homo sapiens, UniProt P55072)
Description: Inhibition of human p97 ATPase incubated for 15 mins by ADP Glo luminescence assay

[2] = target: T1, Transitional endoplasmic reticulum ATPase; test: Inhibition of p97 ATPase in human A549 cells assessed as reduction in p62 protein incubated for 6 hrs by immunofluorescence assay; type: cell-based
[3] = Aqueous solubility of compound; type: physicochemical; conditions: aqueous medium
[4] = target: T1, Transitional endoplasmic reticulum ATPase; remark: listed apart in the source
Description: Inhibition of p97 ATPase in human A549 cells assessed as accumulation of CHOP poly-ubiquitinated proteins incubated for 6 hrs by immunofluorescence assay

[5] = target: T1, Transitional endoplasmic reticulum ATPase; remark: listed apart in the source
Description: Inhibition of p97 ATPase in human A549 cells assessed as accumulation of K48 poly-ubiquitinated proteins incubated for 6 hrs by immunofluorescence assay

[6] = Half life in mouse liver microsomes; type: ADME; conditions: for half-life: liver microsomes
A549 [7] = test: cells; conditions: Homo sapiens, A549, 72 h
Description: Cytotoxicity against human A549 cells assessed as cell viability after 72 hrs by Celltiter-Glo assay

[8] = Metabolic stability of compound in mouse liver microsomes; type: ADME
Plasma = test: Drug uptake in plasma of mouse xenografted with human A549 cells at 150 mg/kg, po measured at 2 to 24 hrs; type: ADME, organism-based; conditions: in vivo
HCT-116 [9] = test: Antitumor activity against human HCT116 cells xenografted in nude mouse assessed as tumor growth inhibition at 50 mg/kg, po q2d for 12 days; type: functional, organism-based
A549 [10] = test: Drug uptake in human A549 cells xenografted in mouse at 150 mg/kg, po measured at 2 to 24 hrs; type: ADME, organism-based; conditions: in vivo
HCT-116 [11] = test: Antitumor activity against human HCT116 cells xenografted in nude mouse assessed as tumor growth inhibition at 300 mg/kg, po qd; type: functional, organism-based
A549 [12] = test: Antitumor activity against human A549 cells xenografted in […] SCID beige mouse assessed as tumor growth inhibition at 1 mg/kg, iv administered twice per week; type: functional, organism-based
AMO1 = conditions: Homo sapiens
Description: Antitumor activity against human AMO1 cells xenografted in nude SCID beige mouse assessed as tumor growth inhibition at 1 mg/kg, iv administered twice per week

[13] = target: T1, Transitional endoplasmic reticulum ATPase; test: Inhibition of p97 ATPase (unknown origin)
[14] = Mean residence time in mouse at 3 mg/kg, iv; conditions: in vivo
in vivo [15] = conditions: mouse, po, 25 mg/kg
Description: Tmax in mouse at 25 mg/kg, po

[16] = Half life in mouse hepatocytes
[17] = Apparent permeability from apical to basolateral side in human Caco2 cells; conditions: Caco-2
in vivo [18] = conditions: mouse, po, 25 mg/kg; remark: listed apart in the source
Description: Cmax in mouse at 25 mg/kg, po

[19] = Mean residence time in mouse at 25 mg/kg, po; conditions: in vivo

T1 sequence (P55072 whole entry): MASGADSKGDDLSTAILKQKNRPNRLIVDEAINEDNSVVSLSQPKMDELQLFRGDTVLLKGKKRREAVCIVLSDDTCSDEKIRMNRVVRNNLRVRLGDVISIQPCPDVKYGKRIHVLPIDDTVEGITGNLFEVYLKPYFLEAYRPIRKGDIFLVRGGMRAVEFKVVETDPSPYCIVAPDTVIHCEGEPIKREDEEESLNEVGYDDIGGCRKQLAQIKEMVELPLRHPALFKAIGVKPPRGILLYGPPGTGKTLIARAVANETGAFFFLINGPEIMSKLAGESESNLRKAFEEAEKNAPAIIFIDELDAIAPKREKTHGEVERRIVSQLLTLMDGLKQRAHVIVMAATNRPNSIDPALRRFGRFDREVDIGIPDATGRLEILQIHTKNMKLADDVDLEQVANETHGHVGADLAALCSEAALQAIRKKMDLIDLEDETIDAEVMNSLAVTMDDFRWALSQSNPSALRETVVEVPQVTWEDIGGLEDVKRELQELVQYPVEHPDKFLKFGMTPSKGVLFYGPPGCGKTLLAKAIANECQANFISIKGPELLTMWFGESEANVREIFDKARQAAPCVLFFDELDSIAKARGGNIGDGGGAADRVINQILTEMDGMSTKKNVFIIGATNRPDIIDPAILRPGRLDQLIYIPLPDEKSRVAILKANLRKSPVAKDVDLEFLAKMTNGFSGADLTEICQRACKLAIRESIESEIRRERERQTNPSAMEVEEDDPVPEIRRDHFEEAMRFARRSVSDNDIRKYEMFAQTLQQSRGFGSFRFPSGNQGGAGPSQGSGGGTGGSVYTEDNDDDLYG

Row | IC50 [1] | IC50 (A549 [7]) | SMILES | further results
1 | > 5000 nM | – | CCc1nc2ccccc2n1-c1nc(NCc2ccccc2)c2cccc(OC)c2n1 | –
2 | 4830 nM | – | Cc1cc2c(C(=O)NC(C)C)cccc2n1-c1nc2c(c(NCc3ccccc3)n1)CNCC2 | –
3 | 1070 nM | – | COc1cccc2c(NCc3ccccc3)nc(-n3c(=O)[nH]c4ccccc43)nc12 | –
4 | > 5000 nM | – | Nc1nc2ccccc2n1-c1nc2c(c(NCc3ccccc3)n1)CNCC2 | –
5 | 815 nM | 3260 nM | COc1cccc2c(NCc3ccccc3)nc(-n3c(N)nc4ccccc43)nc12 | IC50 ([2]; a549): Not Active; solubility [3]: < 1 µg/mL; IC50 [4]: 6610 nM; IC50 [5]: 6140 nM; half-life [6]: 7 min
6 | 15 nM | > 40000 nM | Cc1cc2c(-c3nnn[nH]3)cccc2n1-c1nc2c(c(NCc3ccccc3)n1)CNCC2 | –
7 | 8910 nM | – | Cc1cc2ccc(C#N)cc2n1-c1nc2c(c(NCc3ccccc3)n1)CNCC2 | –
8 | 227 nM | – | COc1cccc2c(NCc3ccccc3)nc(-n3c(N(C)C)nc4ccccc43)nc12 | –
9 | 648 nM | 7850 nM | Cc1cccc2c1cc(C)n2-c1nc2c(c(NCc3ccccc3)n1)CNCC2 | –
10 | 98 nM | – | Cc1nc2ccccc2n1-c1nc2c(c(NCc3ccccc3)n1)CCCC2 | –
11 | > 5000 nM | – | Cc1cc2cc(C#N)ccc2n1-c1nc2c(c(NCc3ccccc3)n1)CNCC2 | –
12 | 3860 nM | – | Cc1ccc2cc(C)n(-c3nc4c(c(NCc5ccccc5)n3)CNCC4)c2c1 | –
13 | 3130 nM | – | COc1nc2ccccc2n1-c1nc2c(c(NCc3ccccc3)n1)CNCC2 | –
14 | 152 nM | – | COc1cccc2c(NCc3ccccc3)nc(-n3c(C)nc4ccccc43)nc12 | –
15 | 3910 nM | – | Cc1cc2c(C(F)(F)F)cccc2n1-c1nc2c(c(NCc3ccccc3)n1)CNCC2 | –
16 | 367 nM | 25000 nM | Cc1nn2ccccc2c1-c1nc2c(c(NCc3ccccc3)n1)CCCC2 | –
17 | > 5000 nM | – | COc1cccc2c(N(C)Cc3ccccc3)nc(-n3c(N)nc4ccccc43)nc12 | –
18 | 71 nM | 2440 nM | Cc1cc2c(C(N)=O)cccc2n1-c1nc2c(c(NCc3ccccc3)n1)CCNC2 | –
19 | 144 nM | 8920 nM | Cc1cc2c(C#N)cccc2n1-c1nc2c(c(NCc3ccccc3)n1)CNCC2 | –
20 | 192 nM | 8640 nM | Cc1cc2ccccc2n1-c1nc2c(c(NCc3ccccc3)n1)CNCC2 | IC50 ([2]; a549): Not Active; solubility [3]: 750 µg/mL (≈ 2030 µM); IC50 [4]: 9150 nM; IC50 [5]: 15300 nM; t1/2 ([6]; microsomes): Stable; Stability [8]: Stable
21 | > 5000 nM | – | COc1cccc2c(NCc3ccccc3)nc(-n3c(NC(C)=O)nc4ccccc43)nc12 | –
22 | 153 nM | 4700 nM | NCc1cc2ccccc2n1-c1nc2c(c(NCc3ccccc3)n1)CCCC2 | –

Row | IC50 [1] | IC50 (A549 [7]) | SMILES | further results
23 | > 5000 nM | – | COc1cccc2c(NCc3ccccc3)nc(-n3cnc4ccccc43)nc12 | –
24 | 6 nM | 590 nM | Cc1cc2c(C(N)=O)cccc2n1-c1nc2c(c(NCc3ccccc3)n1)CCCC2 | IC50 ([2]; read-out: IC50): 250 nM; Drug uptake (Plasma): Active; TGI (HCT-116 [9]): Active; solubility [3]: 4 µg/mL (≈ 9.72 µM); IC50 [4]: 580 nM; IC50 [5]: 500 nM; half-life [6]: 44 min; Drug uptake (A549 [10]): Active
25 | 3000 nM | – | Nc1nc2ccccc2n1-c1nc(NCc2ccccc2)c2ccsc2n1 | –
26 | 76 nM | 7450 nM | COc1nc2ccccc2n1-c1nc2c(c(NCc3ccccc3)n1)CCCC2 | IC50 ([2]; read-out: IC50): 4840 nM; solubility [3]: < 1 µg/mL; IC50 [4]: 9340 nM; IC50 [5]: 4240 nM; half-life [6]: 11 min; TGI (HCT-116 [11]): Active
27 | > 5000 nM | – | COc1ccc2c(c1)cc(C)n2-c1nc2c(c(NCc3ccccc3)n1)CNCC2 | –
28 | > 5000 nM | – | COc1cccc2c(OCc3ccccc3)nc(-n3c(N)nc4ccccc43)nc12 | –
29 | > 5000 nM | – | COc1cccc2c(NC(=O)c3ccccc3)nc(-n3c(N)nc4ccccc43)nc12 | –
30 | 370 nM | – | COCCOc1cccc2c(NCc3ccccc3)nc(-n3c(OC)nc4ccccc43)nc12 | –
31 | 342 nM | 6280 nM | Cc1cc2c(F)cccc2n1-c1nc2c(c(NCc3ccccc3)n1)CNCC2 | –
32 | 68 nM | 8400 nM | OCc1cc2ccccc2n1-c1nc2c(c(NCc3ccccc3)n1)CCCC2 | –
33 | > 5000 nM | – | Cc1ccc2c(c1)cc(C)n2-c1nc2c(c(NCc3ccccc3)n1)CNCC2 | –
34 | 304 nM | – | COCCOc1cccc2c(NCc3ccccc3)nc(-n3c(C)nc4ccccc43)nc12 | –
35 | – | 1070 nM | Cc1cc2c(C(N)=O)cccc2n1-c1nc2c(c(NCc3ccccc3)n1)CCOC2 | –
36 | – | – | CC(C)C[C@H](NC(=O)[C@H](Cc1ccccc1)NC(=O)c1cnccn1)B(O)O | TGI (A549 [12]): inactive; TGI (AMO1): Active
37 | > 5000 nM | – | Cc1cc2c(C(=O)N(C)C)cccc2n1-c1nc2c(c(NCc3ccccc3)n1)CNCC2 | –
38 | > 5000 nM | – | COc1cccc2c(CCc3ccccc3)nc(-n3c(N)nc4ccccc43)nc12 | –
39 | 248 nM | 18200 nM | Cc1nc2ccccn2c1-c1nc2c(c(NCc3ccccc3)n1)CCCC2 | –
40 | 2080 nM | – | COc1cccc2c1cc(C)n2-c1nc2c(c(NCc3ccccc3)n1)CNCC2 | –
41 | > 5000 nM | – | COc1cccc2c(NCc3ccccc3)nc(Nc3nc4ccccc4[nH]3)nc12 | –
42 | – | – | O=C(CCl)Nc1cccc(NC2=NS(=O)(=O)c3ccccc32)c1 | IC50 [13]: 370 nM
43 | 43 nM | 7110 nM | COc1cc2ccccc2n1-c1nc2c(c(NCc3ccccc3)n1)CCCC2 | –
44 | > 5000 nM | – | COc1cccc2c(NC(C)c3ccccc3)nc(-n3c(N)nc4ccccc43)nc12 (configuration not stated) | –

Row | IC50 [1] | IC50 (A549 [7]) | SMILES | further results
45 | 425 nM | – | Nc1nc2ccccc2n1-c1nc2c(c(NCc3ccccc3)n1)CCCC2 | –
46 | > 5000 nM | – | COc1cccc2c(Cc3ccccc3)nc(-n3c(N)nc4ccccc43)nc12 | –
47 | 149 nM | 15800 nM | Cc1[nH]c2ccccc2c1-c1nc2c(c(NCc3ccccc3)n1)CCCC2 | –
48 | 145 nM | – | COc1cccc2c(NCc3ccccc3)nc(-n3c(OC)nc4ccccc43)nc12 | –
49 | > 5000 nM | – | COc1ccc2cc(C)n(-c3nc4c(c(NCc5ccccc5)n3)CNCC4)c2c1 | –
50 | 445 nM | – | CCc1cc2ccccc2n1-c1nc2c(c(NCc3ccccc3)n1)CCCC2 | –
51 | – | – | Cc1cc2c(C(N)=O)cccc2n1-c1nc2c(c(NCc3ccccc3)n1)COCC2 [CB-5083] | MRT [14]: 70.2 min; Tmax (in vivo [15]): 30 min; Drug uptake (Plasma): Active; solubility [3]: 32 µg/mL (≈ 77.4 µM); half-life [16]: 172 min; Papp A→B [17]: 52.4 ×10⁻⁶ cm/s; Cmax (in vivo [18]): 7.95 µM; Drug uptake (A549 [10]): Active; MRT [19]: 183 min
52 | 651 nM | > 40000 nM | FC(F)(F)c1cc2ccccc2n1-c1nc2c(c(NCc3ccccc3)n1)CCCC2 | –
53 | > 5000 nM | – | Cc1nc2ccccc2n1-c1nc2c(c(NCc3ccccc3)n1)CNCC2 | –
54 | 47 nM | 6530 nM | Cc1cc2ccccc2n1-c1nc2c(c(NCc3ccccc3)n1)CCCC2 | –
55 | > 5000 nM | – | COc1cccc2c(NCc3ccccc3)nc(Cn3c(C)nc4ccccc43)nc12 | –
56 | 40 nM | 2330 nM | Cc1cc2c(C(N)=O)cccc2n1-c1nc2c(c(NCc3ccccc3)n1)CNCC2 | IC50 ([2]; read-out: IC50): 2000 nM; solubility [3]: 1260 µg/mL (≈ 3040 µM); IC50 [4]: 2860 nM; IC50 [5]: 1790 nM; half-life [6]: 105 min
57 | 795 nM | > 40000 nM | COCc1cc2ccccc2n1-c1nc2c(c(NCc3ccccc3)n1)CCCC2 | –
58 | 632 nM | 7240 nM | Cc1cc2c(Cl)cccc2n1-c1nc2c(c(NCc3ccccc3)n1)CNCC2 | –
59 | 233 nM | – | CNc1nc2ccccc2n1-c1nc(NCc2ccccc2)c2cccc(OC)c2n1 | –
60 | 215 nM | 6030 nM | CNC(=O)c1cccc2c1cc(C)n2-c1nc2c(c(NCc3ccccc3)n1)CNCC2 | –
61 | > 5000 nM | – | COc1cccc2c(NCc3ccccc3)nc(-n3c(N)nc(C)c3C)nc12 | –
62 | 95 nM | > 40000 nM | Cc1cc2c(C(=O)O)cccc2n1-c1nc2c(c(NCc3ccccc3)n1)CNCC2 | –
63 | > 5000 nM | – | COc1cccc2c(NCCc3ccccc3)nc(-n3c(N)nc4ccccc43)nc12 | –
64 | > 5000 nM | – | COc1cccc2c(NCc3ccccc3)nc(-n3c(N)nc4c3CCCC4)nc12 | –
65 | 907 nM | – | COCCOc1cccc2c(NCc3ccccc3)nc(-n3c(N)nc4ccccc43)nc12 | –
66 | 180 nM | – | COc1nc2ccccc2n1-c1nc(NCc2ccccc2)c2ncsc2n1 | –
